The test system of assay [1] is myelin basic protein (MBP)-specific T lymphocyte cell lines. Description: Inhibition of T-lymphocyte migration across rat brain endothelial cell layer (Transwell, 51Cr-labelled cells). The format is cell-based, Lewis rats. As to conditions: test substance 10 mmolar in upper well; 6 hours; in comparison with the negative control (glucose 6-phosphate); triplicate. An excerpt:
Vascular endothelial cells were isolated from rat brain capillaries taken from 6 to 8 week old Lewis rats according to the method of Risau et al. (Risau, W., Engelhardt, B., and Wekerle, H., (1990). Journal of Cell Biology, vol 110, p 1757-1766, which is incorporated herein by reference). Colonies of endothelial cells were purified from astroglial cells and pericytes by a Thy1.1-mediated complement lysis also after the method of Risau et al. (vide supra). The endothelial colonies, according to methods known in the art, were grown in Dulbecco's minimum essential medium (DMEM) high glucose supplemented, with 20% fetal calf serum (FCS), glutamine, pyruvate, nonessential amino acids, 4-(2-hydroxyethyl)-1-piperazine ethane sulfonic acid buffer (HEPES), kanamycin, amphotericin, heparin (all from Gibco) and 150 micrograms/ml endothelial growth supplement (Collaborative Biomedical Products). Upon reaching confluence, the endothelial cultures were washed with 0.2% EDTA in phosphate buffered saline (PBS), trypsinized (Trypsin-EDTA, 0.1% final concentration, Gibco), washed and again incubated with anti-Thy1.1 antibody for 40 minutes, washed and incubated with complement sufficient to lyse all Thy1.1+ cells (Behringwerke, AG, Marburg, Germany) at room temperature, washed and plated on matrigel-coated 6.5 mm Transwells, […] (Corning Costar Corporation, Cambridge, Mass.). The endothelial cell characteristics and confluence of the monolayer were checked by measuring the electrical resistance (World Precision Instruments, New Haven, U.S.A., model EVOM-G) and by staining with FITC-labeled phalloidin (Sigma). In order to study the effect of the agents of the present invention on T lymphocyte migration, myelin basic protein (MBP)-specific T lymphocyte cell lines were generated according to the method of Ben-Nun et al. (Ben-Nun, A., Wekerle, H. and Cohen, I. R., 1981). The rapid isolation of clonable antigen-specific T lymphocyte lines capable of mediating autoimmune encephalomyelitis. European Journal of Immunology. 1981, 11(3), 195-199; incorporated herein by reference) from the lymph nodes of Lewis rats that had been immunised with MBP in Freund's complete adjuvant. These cells were used for migration studies during the first 4 days of their propagation in IL-2 containing medium, following antigen (MBP) restimulation in the presence of antigen-presenting cells from irradiated spleen cells or thymocytes taken from normal Lewis rats. The antigen-activated T lymphocytes were radio-labelled with sodium chromate (^51Cr, 37 MBq/ml, Amersham, UK) for 30 minutes at 37° C. with occasional agitation, they were then washed three times with the DMEM culture medium and placed into the upper chamber of the Transwells at 5×10^5 cells in 100 microliters of migration medium. Test and control substance were included in the upper wells at final concentrations of 0.1, 1 and 10 mM. Cell migration was monitored by light microscopy in order to gauge progress of the experiment. […] The combined material was transferred into scintillation vials and the radioactivity of each tube determined by counting for 1 minute in a Packard Auto-Gamma 5650 (IL, USA) gamma counter. Each test and the control substance (glucose 6-phosphate) and no treatment were assessed in triplicate. […]

Assay [2] has as its system passively transferred adjuvant arthritis. As to the kind of experiment: Passively transferred adjuvant induced arthritis. It counts as in vivo, DA rats. As to conditions: 25 mg/kg/day, end of the one week treatment period, FIG. 1. How it is done: Male DA rats 8 to 10 week old were immunised with three 100 microliter injections of Complete Freund's Adjuvant (CFA) intradermally at the base of the tail. The CFA was prepared by mixing 8 mg/ml of Mycobacterium butyricum (Difco Laboratories, USA) that had been ground to a fine powder using a mortar and pestle, in 85% light mineral oil (Sigma, USA) and 15% mannide monooleate (Sigma) and emulsifying this suspension, one part in one part saline. Thus, the final emulsion contained 4 mg/ml of M. butyricum.
Ten days after immunisation the rats were euthanased and the spleens removed aseptically. A single cell suspension was prepared in the usual manner in mixed lymphocyte culture medium (MLC) (Dulbecco's Modified Eagle's Medium (DMEM) plus glucose, folic acid, L-asparagine, sodium pyruvate, HEPES, 2-mercapto ethanol, penicillin, streptomycin, neomycin and 10% fetal calf serum) by pushing the spleens through a stainless steel sieve. The cells were placed in culture in MLC medium with 2 micrograms/ml concanavalin A added such that the lymphocyte concentration was 2 million cells per milliliter. These cells were cultured aseptically at 37° C. in an atmosphere containing 5% carbon dioxide for 72 hours.
Groups of 4 or 5 DA rats, 6 to 8 weeks of age were anesthetised with diethyl ether and implanted subcutaneously on the flank with Alzet 2002 (2 week delivery) or 2001 (1 week delivery) mini-osmotic pumps (Alza Corp., Palo Alto Calif., USA). One treatment group received phosphoric acid mono-(6-propyl-3,4,5-trihydroxy-tetrahydro-pyran-2-ylmethyl) ester in the one week delivery Alzet 2001 mini-osmotic pumps. The drug was delivered at a dose of 25 mg/kg/day. The control group for this experiment received identical mini-osmotic pumps containing normal saline. In a second experiment another group of DA rats received ethyl (3,4,5-trihydroxy-6-phosphonooxymethyl-tetrahydro-pyran-2-yl)-acetic acid ester in the two week delivery Alzet 2002 mini-osmotic pumps. This drug was delivered at a dose of 37 mg/kg/day. Control animals for this group received saline delivered in identical mini-osmotic pumps. The pumps in each case were implanted subcutaneously on the flank of each animal. […]
After 5 to 8 days, a characteristic thickening and cutaneous hyperemia of the distal joints of the hind legs became clinically apparent in the saline control animals. Disease severity was evaluated and graded in each group by taking daily measurements of the mediolateral widths of both ankle joints. The data were expressed as the mean of the change (compared with width prior to cell injection) in mediolateral ankle width expressed in millimeters (±standard error of the mean).

Here are results for one compound from patent publication US6878690B2, “Compounds and methods” (PharmAxis Pty Ltd., priority 2000, dated 2005).

Take `CCCC1OC(COP(=O)(O)O)C(O)C(O)C1O` (stereo not drawn) [phosphoric acid mono-(6-propyl-3,4,5-trihydroxy-tetrahydro-pyran-2-ylmethyl) ester]: the “% inhibition ± SEM” value in assay [1] is 64 ± 4%. The “swelling in the affected joints of treated animals” value in assay [2] (one week Alzet 2001 pump subcutaneously, controls severe swelling) was “little swelling”. In assay [2] (one week Alzet 2001 pump), the “disease status of the treated versus the control animals” value is reported as “highly statistically significant difference”.
